Results taken from patent US20230286970A1, “NOVEL OXADIAZOLE-BASED SELECTIVE HDAC6 INHIBITORS” (ITALFARMACO S.P.A., priority 2020, published 2023).

Experiments:
[1] = molecular target: recombinant human HDAC6 (Homo sapiens (Human), UniProt Q9UBN7); assay: Enzymatic screening, HDAC6 inhibition (fluorogenic FdL_G substrate); assay type: biochemical
Method in brief: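 Enzyme was preincubated with compound (8 doses, triplicate, 1% DMSO) in 25 mM Tris-HCl pH 8, 130 mM NaCl, 0.05% Tween-20, 10% glycerol, with BSA. A FLUOR DE LYS-Green substrate was then added, and fluorescence was read after developer plus 2 μM TSA.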

[2] = molecular target: recombinant human HDAC1 (Homo sapiens (Human), UniProt Q13547); assay: Enzymatic screening, HDAC1 inhibition (fluorogenic FdL_G substrate); assay type: biochemical
Chain of recombinant human HDAC1 (Q13547 whole entry): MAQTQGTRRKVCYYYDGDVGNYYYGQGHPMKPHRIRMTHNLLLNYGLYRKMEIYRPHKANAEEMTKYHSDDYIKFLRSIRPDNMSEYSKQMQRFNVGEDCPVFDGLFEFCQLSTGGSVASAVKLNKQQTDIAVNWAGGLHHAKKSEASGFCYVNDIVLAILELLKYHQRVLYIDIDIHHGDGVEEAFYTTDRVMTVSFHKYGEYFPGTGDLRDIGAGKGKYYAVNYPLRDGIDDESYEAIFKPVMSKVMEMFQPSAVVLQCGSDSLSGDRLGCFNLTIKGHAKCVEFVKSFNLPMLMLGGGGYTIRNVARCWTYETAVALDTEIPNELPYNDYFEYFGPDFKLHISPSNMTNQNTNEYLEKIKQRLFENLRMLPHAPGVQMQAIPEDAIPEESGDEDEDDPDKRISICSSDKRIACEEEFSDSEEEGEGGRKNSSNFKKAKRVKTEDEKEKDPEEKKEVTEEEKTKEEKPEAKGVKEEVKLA
Method in brief: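 Recombinant human HDAC1 inhibition was measured fluorometrically using the FLUOR DE LYS-Green (FdL_G) substrate. Compounds at 8 doses (1% DMSO final) in Tris-HCl pH 8 buffer with NaCl, Tween-20 and glycerol were preincubated in triplicate with enzyme and 1 mg/mL BSA, then given substrate. Developer I plus 2 μM TSA was added, and fluorescence read after 25 minutes in the dark.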

Chain of recombinant human HDAC6 (Q9UBN7 whole entry): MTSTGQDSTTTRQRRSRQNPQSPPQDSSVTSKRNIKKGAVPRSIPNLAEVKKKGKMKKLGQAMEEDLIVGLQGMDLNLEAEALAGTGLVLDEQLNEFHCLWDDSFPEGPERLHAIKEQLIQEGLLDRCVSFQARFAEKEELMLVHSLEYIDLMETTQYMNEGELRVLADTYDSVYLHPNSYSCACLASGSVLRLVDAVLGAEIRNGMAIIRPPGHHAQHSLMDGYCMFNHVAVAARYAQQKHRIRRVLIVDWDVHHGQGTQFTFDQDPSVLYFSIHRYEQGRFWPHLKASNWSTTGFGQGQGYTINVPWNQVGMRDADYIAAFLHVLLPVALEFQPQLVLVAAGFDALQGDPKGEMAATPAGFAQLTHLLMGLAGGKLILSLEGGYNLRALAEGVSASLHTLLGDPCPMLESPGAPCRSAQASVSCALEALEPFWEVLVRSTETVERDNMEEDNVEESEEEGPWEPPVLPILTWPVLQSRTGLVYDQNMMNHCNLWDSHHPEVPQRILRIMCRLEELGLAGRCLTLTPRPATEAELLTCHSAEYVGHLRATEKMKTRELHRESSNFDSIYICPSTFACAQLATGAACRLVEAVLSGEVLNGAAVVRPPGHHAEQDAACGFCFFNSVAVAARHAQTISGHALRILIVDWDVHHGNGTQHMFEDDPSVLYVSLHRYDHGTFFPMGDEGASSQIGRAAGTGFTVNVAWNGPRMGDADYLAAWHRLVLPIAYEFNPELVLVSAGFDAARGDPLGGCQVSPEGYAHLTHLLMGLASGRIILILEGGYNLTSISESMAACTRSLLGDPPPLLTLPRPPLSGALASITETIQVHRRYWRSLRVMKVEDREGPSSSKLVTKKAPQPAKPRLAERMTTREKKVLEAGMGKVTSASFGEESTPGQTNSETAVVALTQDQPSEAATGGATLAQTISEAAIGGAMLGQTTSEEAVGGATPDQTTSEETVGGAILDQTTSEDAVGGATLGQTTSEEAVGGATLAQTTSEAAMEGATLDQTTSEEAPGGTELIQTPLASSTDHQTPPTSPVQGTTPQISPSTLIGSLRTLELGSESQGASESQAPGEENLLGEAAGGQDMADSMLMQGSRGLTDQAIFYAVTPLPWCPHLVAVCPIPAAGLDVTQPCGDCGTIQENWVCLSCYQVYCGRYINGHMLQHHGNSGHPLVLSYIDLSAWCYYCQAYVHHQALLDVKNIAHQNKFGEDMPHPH

| SMILES | IC50 [1] [nM] | IC50 [2] [nM] |
| --- | --- | --- |
| O=C1NCc2ccc(-c3cn(Cc4ccc(-c5nnc(C(F)F)o5)cc4)cn3)cc21 [compound 294, 6-(1-(4-(5-(difluoromethyl)-1,3,4-oxadiazol-2-yl)benzyl)-1H-imidazol-4-yl)isoindolin-1-one] | 78 | > 200000 |
| O=c1[nH]c2ccc(-c3nnn(Cc4ccc(-c5nnc(C(F)F)o5)cc4)n3)cc2[nH]1 [compound 168, 5-(2-(4-(5-(difluoromethyl)-1,3,4-oxadiazol-2-yl)benzyl)-2H-tetrazol-5-yl)-1,3-dihydro-2H-benzo[d]imidazol-2-one] | 79 | > 200000 |
| Nc1ccc(-c2noc(Cc3ccc(-c4nnc(C(F)F)o4)cc3)n2)cc1 [compound 375, 4-[5-[[4-[5-(difluoromethyl)-1,3,4-oxadiazol-2-yl]phenyl]methyl]-1,2,4-oxadiazol-3-yl]aniline] | 88 | > 1e+06 |
| Nc1cc2cc(-c3cn(Cc4ccc(-c5nnc(C(F)F)o5)cc4F)nn3)ccc2cn1 [compound 405, 6-[1-({4-[5-(difluoromethyl)-1,3,4-oxadiazol-2-yl]-2-fluorophenyl}methyl)-1H-1,2,3-triazol-4-yl]isoquinolin-3-amine] | 59 | 1e+06 |
| O=C(Nc1cccc(-c2cn(Cc3ccc(-c4nnc(C(F)F)o4)c(F)c3F)nn2)c1)N1CCOCC1 [compound 338, N-[3-[1-[[4-[5-(difluoromethyl)-1,3,4-oxadiazol-2-yl]-2,3-difluorophenyl]methyl]triazol-4-yl]phenyl]morpholine-4-carboxamide] | 101 | > 1e+06 |
| Nc1ncnc2sc(-c3cn(Cc4ccc(-c5nnc(C(F)F)o5)cc4)nn3)cc12 [compound 178, 6-(1-(4-(5-(difluoromethyl)-1,3,4-oxadiazol-2-yl)benzyl)-1H-1,2,3-triazol-4-yl)thieno[2,3-d]pyrimidin-4-amine] | 89 | > 200000 |
| COc1ccccc1-c1cn(Cc2ccc(-c3nnc(C(F)F)o3)cc2)nn1 [compound 233, 2-(difluoromethyl)-5-(4-((4-(2-methoxyphenyl)-1H-1,2,3-triazol-1-yl)methyl)phenyl)-1,3,4-oxadiazole] | 200 | > 200000 |
| CN(Cc1ccncc1)Cc1ccc(-c2nnn(Cc3ccc(-c4nnc(C(F)F)o4)cc3)n2)cc1 [compound 215, N-(4-(2-(4-(5-(difluoromethyl)-1,3,4-oxadiazol-2-yl)benzyl)-2H-tetrazol-5-yl)benzyl)-N-methyl-1-(pyridin-4-yl)methanamine] | 151 | > 200000 |
| Nc1ccc(-c2cn(C(COc3ccccc3)c3ccc(-c4nnc(C(F)F)o4)cc3)nn2)cn1 (stereo not shown) [compound 236, 5-(1-(1-(4-(5-(difluoromethyl)-1,3,4-oxadiazol-2-yl)phenyl)-2-phenoxyethyl)-1H-1,2,3-triazol-4-yl)pyridin-2-amine] | 206 | > 200000 |
| FC(F)c1nnc(-c2ccc(Cn3cc(-c4ccccc4)nn3)cc2)o1 [compd. 234, 2-(difluoromethyl)-5-(4-((4-phenyl-1H-1,2,3-triazol-1-yl)methyl)phenyl)-1,3,4-oxadiazole] | 202 | > 200000 |
| CCNc1ccc2cc(-c3nnn(Cc4cc(F)c(-c5nnc(C(F)F)o5)cc4F)n3)ccc2n1 [compound 409, 6-(2-(4-(5-(difluoromethyl)-1,3,4-oxadiazol-2-yl)-2,5-difluorobenzyl)-2H-tetrazol-5-yl)-N-ethylquinolin-2-amine] | 420 | 1e+06 |
| CC(C)(C)OC(=O)N1CCn2ncc(-c3cccc(-c4nnn(Cc5ccc(-c6nnc(C(F)F)o6)cc5)n4)c3)c2C1 [compound 240, tert-butyl 3-(3-(2-(4-(5-(difluoromethyl)-1,3,4-oxadiazol-2-yl)benzyl)-2H-tetrazol-5-yl)phenyl)-6,7-dihydropyrazolo[1,5-a]pyrazine-5 (4H)-carboxylate] | 215 | > 200000 |
| CNc1ncc2cc(-c3cn(Cc4ccc(-c5nnc(C(F)F)o5)cc4F)nn3)ccc2n1 [compound 390, 6-[1-({4-[5-(difluoromethyl)-1,3,4-oxadiazol-2-yl]-2-fluorophenyl}methyl)-1H-1,2,3-triazol-4-yl]-N-methylquinazolin-2-amine] | 116 | 1e+06 |
| Nc1nc2cc(-c3cnn(Cc4ccc(-c5nnc(C(F)F)o5)cn4)c3)ccc2[nH]1 [compound 331, 5-[1-[[5-[5-(difluoromethyl)-1,3,4-oxadiazol-2-yl]pyridin-2-yl]methyl]pyrazol-4-yl]-1H-benzimidazol-2-amine] | 52 | > 1e+06 |
| Nc1nc2ccc(-c3cn(Cc4ccc(-c5nnc(C(F)F)o5)c(F)c4F)nn3)cc2s1 [compound 341, 6-[1-[[4-[5-(difluoromethyl)-1,3,4-oxadiazol-2-yl]-2,3-difluorophenyl]methyl]triazol-4-yl]-1,3-benzothiazol-2-amine] | 135 | > 1e+06 |
| FC(F)c1nnc(-c2ccc(Cn3nnc(-c4cccs4)n3)cc2)o1 [compd. 261, 2-(difluoromethyl)-5-(4-((5-(thiophen-2-yl)-2H-tetrazol-2-yl)methyl)phenyl)-1,3,4-oxadiazole] | 181 | > 200000 |
| CC(c1ccc(-c2nnc(C(F)F)o2)cc1)n1nnc(-c2ccc3c(c2)C(=O)N(C)CC3)n1 (stereo not shown) [compound 229, 7-(2-(1-(4-(5-(difluoromethyl)-1,3,4-oxadiazol-2-yl)phenyl)ethyl)-2H-tetrazol-5-yl)-2-methyl-3,4-dihydroisoquinolin-1 (2H)-one] | 179 | > 200000 |
| CN(Cc1ccncc1)Cc1ccc(-c2nc(Cc3c(F)cc(-c4nnc(C(F)F)o4)cc3F)no2)cc1 [compound 254, N-(4-(3-(4-(5-(difluoromethyl)-1,3,4-oxadiazol-2-yl)-2,6-difluorobenzyl)-1,2,4-oxadiazol-5-yl)benzyl)-N-methyl-1-(pyridin-4-yl)methanamine] | 361 | > 200000 |
| CN(Cc1ccc(-c2nc(Cc3c(F)cc(-c4nnc(C(F)F)o4)cc3F)no2)cc1)C(=O)C(F)F [compound 206, N-(4-(3-(4-(5-(difluoromethyl)-1,3,4-oxadiazol-2-yl)-2,6-difluorobenzyl)-1,2,4-oxadiazol-5-yl)benzyl)-2,2-difluoro-N-methylacetamide] | 127 | > 200000 |

Stronger by IC50 [1], values ahead:

| IC50 [1] [nM] | IC50 [2] [nM] | SMILES |
| --- | --- | --- |
| 33 | > 200000 | FC(F)c1nnc(-c2ccc(Cn3cc(-c4cccs4)nn3)nc2)o1 [compound 85, 2-(difluoromethyl)-5-(6-((4-(thiophen-2-yl)-1H-1,2,3-triazol-1-yl)methyl)pyridin-3-yl)-1,3,4-oxadiazole] |
| 35 | > 1e+06 | Nc1ccc(-c2cn(Cc3ncc(-c4nnc(C(F)F)o4)cc3F)nn2)cn1 [compound 304, 5-[1-[[5-[5-(difluoromethyl)-1,3,4-oxadiazol-2-yl]-3-fluoropyridin-2-yl]methyl]triazol-4-yl]pyridin-2-amine] |
| 16 | > 200000 | Nc1cc(-c2nnn(Cc3ccc(-c4nnc(C(F)F)o4)cc3)n2)ccc1O [compound 35, 2-amino-4-(2-(4-(5-(difluoromethyl)-1,3,4-oxadiazol-2-yl)benzyl)-2H-tetrazol-5-yl)phenol] |
| 30 | > 200000 | NC(=O)c1cc(-c2nnn(Cc3ccc(-c4nnc(C(F)F)o4)cc3)n2)ccc1N [compound 72, 2-amino-5-(2-(4-(5-(difluoromethyl)-1,3,4-oxadiazol-2-yl)benzyl)-2H-tetrazol-5-yl)benzamide] |
| 42 | > 200000 | FC(F)c1nnc(-c2ccc(Cn3nnc(-c4cccc(-c5cnn6c5CNCC6)c4)n3)cc2)o1 [compound 111, 2-(difluoromethyl)-5-(4-((5-(3-(4,5,6,7-tetrahydropyrazolo[1,5-a]pyrazin-3-yl)phenyl)-2H-tetrazol-2-yl)methyl)phenyl)-1,3,4-oxadiazole] |
| 12 | 1e+06 | Nc1ncnc2cc(-c3cn(Cc4ccc(-c5nnc(C(F)F)o5)cc4F)nn3)ccc12 [compound 387, 7-[1-({4-[5-(difluoromethyl)-1,3,4-oxadiazol-2-yl]-2-fluorophenyl}methyl)-1H-1,2,3-triazol-4-yl]quinazolin-4-amine] |
| 26 | 168000 | Fc1cc(-c2nnc(C(F)F)o2)c(F)cc1Cn1nnc(-c2cccc(-c3nc4c([nH]3)CCNC4)c2)n1 [compound 367, 2-(difluoromethyl)-5-[2,5-difluoro-4-[[5-[3-(4,5,6,7-tetrahydro-1H-imidazo[4,5-c]pyridin-2-yl)phenyl]tetrazol-2-yl]methyl]phenyl]-1,3,4-oxadiazole] |
| 7 | > 200000 | O=C(Nc1cc(-c2nnn(Cc3ccc(-c4nnc(C(F)F)o4)cc3)n2)ccc1O)N1CCOCC1 [compound 25, N-(5-(2-(4-(5-(difluoromethyl)-1,3,4-oxadiazol-2-yl)benzyl)-2H-tetrazol-5-yl)-2-hydroxyphenyl)morpholine-4-carboxamide] |
| 39 | > 200000 | FC(F)c1nnc(-c2ccc(Cn3nnc(-c4ccc(N5CCNCC5)cc4)n3)cc2)o1 [compound 103, 2-(difluoromethyl)-5-(4-((5-(4-(piperazin-1-yl)phenyl)-2H-tetrazol-2-yl)methyl)phenyl)-1,3,4-oxadiazole] |
| 18 | > 1e+06 | [2H]C([2H])(c1ccc(-c2nnc(C(F)F)o2)cn1)n1cc(-c2ccc(N)nc2)nn1 [compound 362, 5-[1-[dideuterio-[5-[5-(difluoromethyl)-1,3,4-oxadiazol-2-yl]pyridin-2-yl]methyl]triazol-4-yl]pyridin-2-amine] |
